Source: ChEMBL document CHEMBL4190180 (Medchemcomm, 2016)

Columns and labels:
[1] = biological target: T1, ATP-dependent translocase ABCB1 (Homo sapiens, UniProt P08183); test: Inhibition of human ABCB1 expressed in mouse L5178 cells assessed as potentiation of doxorubicin-induced cytotoxicity by measuring combination index at ED75 in presence of 20.4:1 ratio of doxorubicin to test compound after 48 hrs by MTT assay; assay type: cell-based
[2] = biological target: T1, ATP-dependent translocase ABCB1; test: Inhibition of human ABCB1 expressed in mouse L5178 cells assessed as potentiation of doxorubicin-induced cytotoxicity by measuring combination index at ED50 in presence of 81.5:1 ratio of doxorubicin to test compound after 48 hrs by MTT assay; assay type: cell-based
[3] = biological target: T1, ATP-dependent translocase ABCB1; test: Inhibition of human ABCB1 expressed in mouse L5178 cells assessed as rhodamine-123 accumulation by measuring fluorescence activity ratio at 20 uM pretreated for 10 mins followed by rhodamine-123 addition measured after 20 mins by flow cytometric analysis; assay type: cell-based
SH-SY5Y = test: Antiproliferative activity against human SH-SY5Y cells after 48 hrs by MTT assay
[4] = Antiproliferative activity against mouse L5178 cells after 72 hrs by MTT assay; assay type: functional, cell-based; settings: L5178, 72 h
[5] = Potentiation of doxorubicin-induced cytotoxicity in mouse L5178 cells assessed as combination index at ED75 in presence of 81.5:1 ratio of doxorubicin to test compound after 48 hrs by MTT assay; assay type: functional
[6] = biological target: T1, ATP-dependent translocase ABCB1; test: Inhibition of human ABCB1 expressed in mouse L5178 cells assessed as potentiation of doxorubicin-induced cytotoxicity by measuring combination index at ED90 in presence of 81.5:1 ratio of doxorubicin to test compound after 48 hrs by MTT assay; assay type: cell-based
[7] = Potentiation of doxorubicin-induced cytotoxicity in mouse L5178 cells assessed as combination index at ED50 in presence of 163:1 ratio of doxorubicin to test compound after 48 hrs by MTT assay; assay type: functional
[8] = biological target: T1, ATP-dependent translocase ABCB1; test: Inhibition of human ABCB1 expressed in mouse L5178 cells assessed as potentiation of doxorubicin-induced cytotoxicity by measuring combination index at ED90 in presence of 10.2:1 ratio of doxorubicin to test compound after 48 hrs by MTT assay; assay type: cell-based
[9] = Potentiation of doxorubicin-induced cytotoxicity in mouse L5178 cells assessed as combination index at ED90 in presence of 326:1 ratio of doxorubicin to test compound after 48 hrs by MTT assay; assay type: functional
MDA-MB-231 = test: Antiproliferative activity against human MDA-MB-231 cells after 72 hrs by MTT assay; assay type: functional, cell-based; settings: MDA-MB-231, 72 h
T47D = test: Antiproliferative activity against human T47D cells after 72 hrs by MTT assay; assay type: functional, cell-based
[10] = Potentiation of doxorubicin-induced cytotoxicity in mouse L5178 cells assessed as combination index at ED90 in presence of 163:1 ratio of doxorubicin to test compound after 48 hrs by MTT assay; assay type: functional
[11] = biological target: T1, ATP-dependent translocase ABCB1; test: Inhibition of human ABCB1 expressed in mouse L5178 cells assessed as potentiation of doxorubicin-induced cytotoxicity by measuring combination index at ED90 in presence of 20.4:1 ratio of doxorubicin to test compound after 48 hrs by MTT assay; assay type: cell-based
[12] = Potentiation of doxorubicin-induced cytotoxicity in mouse L5178 cells assessed as combination index at ED75 in presence of 326:1 ratio of doxorubicin to test compound after 48 hrs by MTT assay; assay type: functional
[13] = Potentiation of doxorubicin-induced cytotoxicity in mouse L5178 cells assessed as combination index at ED75 in presence of 163:1 ratio of doxorubicin to test compound after 48 hrs by MTT assay; assay type: functional
[14] = biological target: T1, ATP-dependent translocase ABCB1; test: Inhibition of human ABCB1 expressed in mouse L5178 cells assessed as rhodamine-123 accumulation by measuring fluorescence activity ratio at 2 uM pretreated for 10 mins followed by rhodamine-123 addition measured after 20 mins by flow cytometric analysis; assay type: cell-based
[15] = Antiproliferative activity against mouse L5178 cells harboring human ABCB1 after 72 hrs by MTT assay; assay type: functional, cell-based; settings: L5178, 72 h
MCF7 = test: Antiproliferative activity against human MCF7 cells after 72 hrs by MTT assay; assay type: functional, cell-based; settings: MCF7, 72 h
[16] = biological target: T1, ATP-dependent translocase ABCB1; test: Inhibition of human ABCB1 expressed in mouse L5178 cells assessed as potentiation of doxorubicin-induced cytotoxicity by measuring combination index at ED50 in presence of 10.2:1 ratio of doxorubicin to test compound after 48 hrs by MTT assay; assay type: cell-based
[17] = Potentiation of doxorubicin-induced cytotoxicity in mouse L5178 cells assessed as combination index at ED50 in presence of 81.5:1 ratio of doxorubicin to test compound after 48 hrs by MTT assay; assay type: functional
MDA-MB-361 = test: Antiproliferative activity against human MDA-MB-361 cells after 72 hrs by MTT assay; assay type: functional, cell-based; settings: MDA-MB-361, 72 h
[18] = Potentiation of doxorubicin-induced cytotoxicity in mouse L5178 cells assessed as combination index at ED90 in presence of 81.5:1 ratio of doxorubicin to test compound after 48 hrs by MTT assay; assay type: functional
[19] = biological target: T1, ATP-dependent translocase ABCB1; test: Inhibition of human ABCB1 expressed in mouse L5178 cells assessed as potentiation of doxorubicin-induced cytotoxicity by measuring combination index at ED50 in presence of 20.4:1 ratio of doxorubicin to test compound after 48 hrs by MTT assay; assay type: cell-based
[20] = Potentiation of doxorubicin-induced cytotoxicity in mouse L5178 cells assessed as combination index at ED50 in presence of 326:1 ratio of doxorubicin to test compound after 48 hrs by MTT assay; assay type: functional
[21] = biological target: T1, ATP-dependent translocase ABCB1; test: Inhibition of human ABCB1 expressed in mouse L5178 cells assessed as potentiation of doxorubicin-induced cytotoxicity by measuring combination index at ED75 in presence of 81.5:1 ratio of doxorubicin to test compound after 48 hrs by MTT assay; assay type: cell-based
[22] = biological target: T1, ATP-dependent translocase ABCB1; test: Inhibition of human ABCB1 expressed in mouse L5178 cells assessed as potentiation of doxorubicin-induced cytotoxicity by measuring combination index at ED75 in presence of 10.2:1 ratio of doxorubicin to test compound after 48 hrs by MTT assay; assay type: cell-based
[23] = Selectivity ratio of IC50 for human MCF7 cells to IC50 for human T47D cells; assay type: functional

T1 sequence (P08183 whole entry): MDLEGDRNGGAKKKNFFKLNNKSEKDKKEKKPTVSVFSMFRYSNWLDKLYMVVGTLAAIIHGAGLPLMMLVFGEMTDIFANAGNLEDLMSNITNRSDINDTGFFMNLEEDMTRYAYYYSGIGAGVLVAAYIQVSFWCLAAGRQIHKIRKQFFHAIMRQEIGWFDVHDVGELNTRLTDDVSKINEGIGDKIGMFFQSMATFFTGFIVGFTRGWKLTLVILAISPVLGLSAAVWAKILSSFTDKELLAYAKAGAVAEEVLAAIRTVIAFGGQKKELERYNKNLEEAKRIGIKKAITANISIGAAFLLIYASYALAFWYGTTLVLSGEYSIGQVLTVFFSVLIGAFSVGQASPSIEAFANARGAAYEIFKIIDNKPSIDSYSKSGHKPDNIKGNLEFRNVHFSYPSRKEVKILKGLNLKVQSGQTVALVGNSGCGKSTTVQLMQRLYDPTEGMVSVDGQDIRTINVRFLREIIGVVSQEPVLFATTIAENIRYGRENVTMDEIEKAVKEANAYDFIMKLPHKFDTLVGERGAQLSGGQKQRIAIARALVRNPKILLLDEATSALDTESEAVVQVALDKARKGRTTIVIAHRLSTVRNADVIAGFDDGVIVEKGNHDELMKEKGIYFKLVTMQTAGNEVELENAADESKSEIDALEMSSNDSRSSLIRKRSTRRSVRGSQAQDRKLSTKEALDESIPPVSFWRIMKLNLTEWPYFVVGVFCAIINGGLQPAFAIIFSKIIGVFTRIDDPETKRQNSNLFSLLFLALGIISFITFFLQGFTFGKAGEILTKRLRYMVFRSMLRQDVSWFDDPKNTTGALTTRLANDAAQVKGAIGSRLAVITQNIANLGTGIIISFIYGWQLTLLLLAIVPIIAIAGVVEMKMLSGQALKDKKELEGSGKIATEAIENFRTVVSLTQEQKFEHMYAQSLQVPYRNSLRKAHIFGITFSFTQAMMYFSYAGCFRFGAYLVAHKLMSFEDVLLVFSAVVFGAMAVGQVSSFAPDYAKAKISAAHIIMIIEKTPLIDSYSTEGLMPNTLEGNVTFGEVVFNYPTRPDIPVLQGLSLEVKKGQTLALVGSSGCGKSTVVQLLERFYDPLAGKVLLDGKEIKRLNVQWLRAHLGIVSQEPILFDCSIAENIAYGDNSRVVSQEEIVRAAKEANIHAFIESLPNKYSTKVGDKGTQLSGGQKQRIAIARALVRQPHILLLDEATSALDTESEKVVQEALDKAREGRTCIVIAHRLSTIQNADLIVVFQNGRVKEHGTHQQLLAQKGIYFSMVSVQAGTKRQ

Structure (SMILES): CC(C)(F)CC[C@@H]1OC(C)(C)O[C@]1(C)[C@H]1CC[C@@]2(F)C3=CC(=O)[C@@H]4C[C@H]5OC(C)(C)O[C@H]5C[C@]4(C)[C@H]3CC[C@]12C
- CI [1]: 0.12
- CI [2]: 0.24
- Ratio [3]: 89.78
- IC50 (SH-SY5Y): 126 µM
- IC50 [4]: 88.6 µM
- CI [5]: 0.42
- CI [6]: 0.11
- CI [7]: 0.6
- CI [8]: 0.06
- CI [9]: 0.52
- IC50 (MDA-MB-231): 98.4 µM
- IC50 (T47D): 49.2 µM
- CI [10]: 0.34
- CI [11]: 0.07
- CI [12]: 0.59
- CI [13]: 0.44
- Ratio [14]: 11.02
- IC50 [15]: 82.3 µM
- IC50 (MCF7): 128 µM
- CI [16]: 0.23
- CI [17]: 0.7
- IC50 (MDA-MB-361): 53.8 µM
- CI [18]: 0.27
- CI [19]: 0.21
- CI [20]: 0.72
- CI [21]: 0.16
- CI [22]: 0.11
- Ratio IC50 [23]: 3

Structure (SMILES): CC(C)(F)CC[C@@H]1OC(C)(C)O[C@]1(C)[C@H]1CC=C2C3=CC(=O)[C@@H]4C[C@H]5OC(C)(C)O[C@H]5C[C@]4(C)[C@H]3CC[C@@]21C
- CI [1]: 0.36
- CI [2]: 0.78
- Ratio [3]: 109.37
- IC50 (SH-SY5Y): 18.8 µM
- IC50 [4]: 14.1 µM
- CI [5]: 0.8
- CI [6]: 0.69
- CI [7]: 0.8
- CI [8]: 0.22
- CI [9]: 0.9
- IC50 (MDA-MB-231): 50.2 µM
- IC50 (T47D): 17.4 µM
- CI [10]: 0.95
- CI [11]: 0.28
- CI [12]: 0.84
- CI [13]: 0.87
- Ratio [14]: 31.15
- IC50 [15]: 17.4 µM
- IC50 (MCF7): 43.8 µM
- CI [16]: 0.56
- CI [17]: 0.73
- IC50 (MDA-MB-361): 11.8 µM
- CI [18]: 0.89
- CI [19]: 0.48
- CI [20]: 0.79
- CI [21]: 0.73
- CI [22]: 0.34
- Ratio IC50 [23]: 3

Structure (SMILES): CC(C)(O)CC[C@@H]1OC(C)(C)O[C@]1(C)[C@H]1CC=C2C3=CC(=O)[C@@H]4C[C@H]5OC(C)(C)O[C@H]5C[C@]4(C)[C@H]3CC[C@@]21C
- CI [1]: 0.44
- CI [2]: 1.09
- Ratio [3]: 57.36
- IC50 (SH-SY5Y): 20.8 µM
- IC50 [4]: 14.6 µM
- CI [5]: 0.89
- CI [6]: 0.69
- CI [7]: 0.93
- CI [8]: 0.39
- CI [9]: 0.73
- IC50 (MDA-MB-231): 38.5 µM
- IC50 (T47D): 10.9 µM
- CI [10]: 0.86
- CI [11]: 0.37
- CI [12]: 0.81
- CI [13]: 0.89
- Ratio [14]: 1.28
- IC50 [15]: 19.3 µM
- IC50 (MCF7): 30.1 µM
- CI [16]: 0.55
- CI [17]: 0.99
- IC50 (MDA-MB-361): 13.8 µM
- CI [18]: 0.82
- CI [19]: 0.54
- CI [20]: 0.9
- CI [21]: 0.87
- CI [22]: 0.45
- Ratio IC50 [23]: 3

Structure (SMILES): COc1cccc2c1C(=O)c1c(O)c3c(c(O)c1C2=O)C[C@@](O)(C(=O)CO)C[C@@H]3O[C@H]1C[C@H](N)[C@H](O)[C@H](C)O1 [DOXORUBICIN]
- IC50 (SH-SY5Y): 0.14 µM
- IC50 [4]: 0.23 µM
- IC50 [15]: 3.54 µM

Structure (SMILES): CC(C)(O)CC[C@@H]1OC(C)(C)O[C@]1(C)[C@H]1CC[C@@]2(O)C3=CC(=O)[C@@H]4C[C@H]5OC(C)(C)O[C@H]5C[C@]4(C)[C@H]3CC[C@]12C
- CI [1]: 0.14
- CI [2]: 0.39
- Ratio [3]: 11.28
- IC50 (SH-SY5Y): 127 µM
- IC50 [4]: 82.9 µM
- CI [5]: 0.71
- CI [6]: 0.12
- CI [7]: 0.67
- CI [8]: 0.11
- CI [9]: 0.51
- IC50 (MDA-MB-231): 106 µM
- IC50 (T47D): 84.7 µM
- CI [10]: 0.46
- CI [11]: 0.07
- CI [12]: 0.55
- CI [13]: 0.55
- Ratio [14]: 3.33
- IC50 [15]: 106 µM
- IC50 (MCF7): 75.1 µM
- CI [16]: 0.31
- CI [17]: 0.74
- IC50 (MDA-MB-361): 69.2 µM
- CI [18]: 0.68
- CI [19]: 0.27
- CI [20]: 0.61
- CI [21]: 0.22
- CI [22]: 0.18

Structure (SMILES): CC(C)(F)CC[C@@H]1OC(C)(C)O[C@]1(C)[C@H]1CC[C@@]2(O)C3=CC(=O)[C@@H]4C[C@H]5OC(C)(C)O[C@H]5C[C@]4(C)[C@H]3CC[C@]12C
- CI [1]: 0.19
- CI [2]: 0.35
- Ratio [3]: 38.62
- IC50 (SH-SY5Y): 70.7 µM
- IC50 [4]: 48.3 µM
- CI [5]: 0.66
- CI [6]: 0.33
- CI [7]: 0.85
- CI [8]: 0.16
- CI [9]: 0.91
- IC50 (MDA-MB-231): 48.9 µM
- IC50 (T47D): 70.3 µM
- CI [10]: 0.71
- CI [11]: 0.19
- CI [12]: 0.96
- CI [13]: 0.76
- Ratio [14]: 1.59
- IC50 [15]: 50.1 µM
- IC50 (MCF7): 63.1 µM
- CI [16]: 0.19
- CI [17]: 0.8
- IC50 (MDA-MB-361): 30.9 µM
- CI [18]: 0.56
- CI [19]: 0.19
- CI [20]: 1.04
- CI [21]: 0.33
- CI [22]: 0.17
